Data as given in ChEMBL document CHEMBL4396963, “An exploration of solvent-front region high affinity moiety leading to novel potent ALK & ROS1 dual inhibitors with mutant-combating effects” (Bioorg Med Chem, 2019).
Activity calls are given as the source filed them. The rule behind the calls is not given here.

Key:
HCC78 = test: Antiproliferative activity against human HCC78 cells assessed as reduction in cell viability incubated for 72 hrs by MTT assay; format: functional, cell-based; conditions: HCC78, 72 h
A549 [1] = test: Antiproliferative activity against human A549 cells harbouring […] mutant assessed as reduction in cell viability incubated for 72 hrs by MTT assay; format: functional, cell-based; conditions: A549, 72 h
A549 [2] = test: cells; conditions: Homo sapiens, A549, 72 h
[3] = molecular target: ALK tyrosine kinase receptor (Homo sapiens, UniProt Q9UM73); test: Inhibition of recombinant human N-terminal GST-tagged ALK (1058 to 1620 residues) cytoplasmic domain expressed in baculovirus expression system using srctide as substrate incubated for 1 hr by mobility shift assay
Sequence of ALK tyrosine kinase receptor (Homo sapiens, UniProt Q9UM73) (Q9UM73 whole entry, the tested form may be a part): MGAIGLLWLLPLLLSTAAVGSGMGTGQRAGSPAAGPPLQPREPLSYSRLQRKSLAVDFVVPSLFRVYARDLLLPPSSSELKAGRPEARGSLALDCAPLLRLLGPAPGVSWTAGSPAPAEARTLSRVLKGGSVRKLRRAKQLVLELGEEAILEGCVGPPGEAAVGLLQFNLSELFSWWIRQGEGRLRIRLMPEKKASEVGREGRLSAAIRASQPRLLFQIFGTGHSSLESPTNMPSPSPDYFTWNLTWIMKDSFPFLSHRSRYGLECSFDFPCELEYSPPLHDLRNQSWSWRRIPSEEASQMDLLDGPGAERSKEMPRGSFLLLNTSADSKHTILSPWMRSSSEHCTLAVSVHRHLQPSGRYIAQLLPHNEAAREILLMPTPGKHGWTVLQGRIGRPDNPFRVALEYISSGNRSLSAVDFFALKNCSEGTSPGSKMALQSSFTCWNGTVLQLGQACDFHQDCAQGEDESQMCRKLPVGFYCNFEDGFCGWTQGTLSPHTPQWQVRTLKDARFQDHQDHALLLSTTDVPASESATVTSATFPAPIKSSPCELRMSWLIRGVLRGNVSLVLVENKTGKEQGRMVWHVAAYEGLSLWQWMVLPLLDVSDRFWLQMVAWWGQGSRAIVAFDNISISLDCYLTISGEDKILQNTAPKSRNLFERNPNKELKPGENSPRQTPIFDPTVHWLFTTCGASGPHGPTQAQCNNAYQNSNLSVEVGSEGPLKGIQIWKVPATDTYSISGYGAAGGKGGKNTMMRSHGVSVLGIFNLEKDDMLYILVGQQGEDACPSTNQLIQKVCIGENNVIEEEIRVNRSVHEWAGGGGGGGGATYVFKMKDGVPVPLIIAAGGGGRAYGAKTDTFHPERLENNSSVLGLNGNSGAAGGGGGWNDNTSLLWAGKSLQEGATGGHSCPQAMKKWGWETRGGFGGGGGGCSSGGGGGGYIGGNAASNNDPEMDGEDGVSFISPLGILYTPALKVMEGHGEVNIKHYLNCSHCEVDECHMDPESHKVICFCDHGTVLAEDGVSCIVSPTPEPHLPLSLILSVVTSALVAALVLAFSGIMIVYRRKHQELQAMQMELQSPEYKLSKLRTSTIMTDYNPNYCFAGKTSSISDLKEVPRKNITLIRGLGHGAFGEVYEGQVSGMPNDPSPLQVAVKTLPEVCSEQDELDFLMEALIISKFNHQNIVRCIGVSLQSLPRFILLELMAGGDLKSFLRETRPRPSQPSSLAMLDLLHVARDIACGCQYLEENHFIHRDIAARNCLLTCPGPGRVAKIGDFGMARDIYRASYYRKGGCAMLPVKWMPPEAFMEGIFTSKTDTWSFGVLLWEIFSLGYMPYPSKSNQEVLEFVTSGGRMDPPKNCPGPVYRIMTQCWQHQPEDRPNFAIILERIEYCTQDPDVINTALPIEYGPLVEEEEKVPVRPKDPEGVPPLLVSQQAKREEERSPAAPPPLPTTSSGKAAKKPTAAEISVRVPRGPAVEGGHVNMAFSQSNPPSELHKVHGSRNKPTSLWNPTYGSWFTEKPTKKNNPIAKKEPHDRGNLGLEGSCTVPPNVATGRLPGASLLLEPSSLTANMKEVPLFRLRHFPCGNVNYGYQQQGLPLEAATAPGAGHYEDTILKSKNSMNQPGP

[4] = molecular target: ALK tyrosine kinase receptor (Homo sapiens, UniProt Q9UM73, L1196M); test: Inhibition of recombinant human N-terminal GST-tagged ALK (1058 to 1620 residues) cytoplasmic domain L1196M mutant expressed in baculovirus expression system using srctide as substrate incubated for 1 hr by mobility shift assay
Sequence of ALK tyrosine kinase receptor (Homo sapiens, UniProt Q9UM73, L1196M) (Q9UM73 19-1620 L1196M limits assumed): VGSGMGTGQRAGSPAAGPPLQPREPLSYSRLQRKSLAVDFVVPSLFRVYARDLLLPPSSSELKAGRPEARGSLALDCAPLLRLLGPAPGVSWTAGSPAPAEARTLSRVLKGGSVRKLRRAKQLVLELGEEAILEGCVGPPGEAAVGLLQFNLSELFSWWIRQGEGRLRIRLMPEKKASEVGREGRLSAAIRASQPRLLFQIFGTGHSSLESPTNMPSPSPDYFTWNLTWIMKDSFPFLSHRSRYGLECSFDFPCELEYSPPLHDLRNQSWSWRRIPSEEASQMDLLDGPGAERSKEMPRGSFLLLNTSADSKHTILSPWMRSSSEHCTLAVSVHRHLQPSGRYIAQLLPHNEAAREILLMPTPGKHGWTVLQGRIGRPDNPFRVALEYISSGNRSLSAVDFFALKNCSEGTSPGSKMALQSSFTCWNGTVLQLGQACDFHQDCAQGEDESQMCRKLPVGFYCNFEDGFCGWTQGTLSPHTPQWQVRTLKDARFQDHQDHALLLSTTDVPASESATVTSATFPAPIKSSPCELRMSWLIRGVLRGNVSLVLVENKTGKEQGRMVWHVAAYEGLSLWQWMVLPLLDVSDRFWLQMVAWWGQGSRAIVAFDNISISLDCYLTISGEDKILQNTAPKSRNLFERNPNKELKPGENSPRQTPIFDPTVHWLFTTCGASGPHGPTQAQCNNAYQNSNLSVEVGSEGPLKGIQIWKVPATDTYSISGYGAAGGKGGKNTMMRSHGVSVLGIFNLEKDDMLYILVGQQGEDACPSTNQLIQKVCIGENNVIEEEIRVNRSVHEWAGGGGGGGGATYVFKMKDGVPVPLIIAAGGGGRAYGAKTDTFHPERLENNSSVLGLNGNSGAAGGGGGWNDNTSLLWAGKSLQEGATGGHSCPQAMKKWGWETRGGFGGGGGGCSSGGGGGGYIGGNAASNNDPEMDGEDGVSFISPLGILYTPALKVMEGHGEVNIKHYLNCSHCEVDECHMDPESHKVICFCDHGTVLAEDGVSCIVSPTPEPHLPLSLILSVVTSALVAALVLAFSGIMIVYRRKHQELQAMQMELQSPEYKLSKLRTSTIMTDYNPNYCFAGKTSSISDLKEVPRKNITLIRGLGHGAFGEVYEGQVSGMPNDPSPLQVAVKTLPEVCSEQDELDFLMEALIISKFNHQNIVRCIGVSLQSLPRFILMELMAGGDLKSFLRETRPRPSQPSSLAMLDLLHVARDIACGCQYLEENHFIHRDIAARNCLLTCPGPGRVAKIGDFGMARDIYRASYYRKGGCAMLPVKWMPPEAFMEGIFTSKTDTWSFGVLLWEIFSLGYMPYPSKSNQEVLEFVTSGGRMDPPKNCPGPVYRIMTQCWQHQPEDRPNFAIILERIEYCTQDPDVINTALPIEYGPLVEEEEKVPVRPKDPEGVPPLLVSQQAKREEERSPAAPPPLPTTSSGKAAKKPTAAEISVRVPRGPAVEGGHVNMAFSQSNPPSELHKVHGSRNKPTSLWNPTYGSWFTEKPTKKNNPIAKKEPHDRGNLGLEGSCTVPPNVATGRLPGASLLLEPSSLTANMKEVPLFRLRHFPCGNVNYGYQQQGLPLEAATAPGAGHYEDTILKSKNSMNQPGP

HT-29 = test: cells; conditions: Homo sapiens, HT-29, 72 h
Description: Antiproliferative activity against human HT-29 cells assessed as reduction in cell viability incubated for 72 hrs by MTT assay

NCI-H2228 [5] = test: Antiproliferative activity against human NCI-H2228 cells assessed as reduction in cell viability incubated for 72 hrs by MTT assay; format: functional, cell-based; conditions: NCI-H2228, 72 h
[6] = molecular target: Epidermal growth factor receptor (Homo sapiens, UniProt P00533)
Sequence of Epidermal growth factor receptor (P00533 whole entry, the tested form may be a part): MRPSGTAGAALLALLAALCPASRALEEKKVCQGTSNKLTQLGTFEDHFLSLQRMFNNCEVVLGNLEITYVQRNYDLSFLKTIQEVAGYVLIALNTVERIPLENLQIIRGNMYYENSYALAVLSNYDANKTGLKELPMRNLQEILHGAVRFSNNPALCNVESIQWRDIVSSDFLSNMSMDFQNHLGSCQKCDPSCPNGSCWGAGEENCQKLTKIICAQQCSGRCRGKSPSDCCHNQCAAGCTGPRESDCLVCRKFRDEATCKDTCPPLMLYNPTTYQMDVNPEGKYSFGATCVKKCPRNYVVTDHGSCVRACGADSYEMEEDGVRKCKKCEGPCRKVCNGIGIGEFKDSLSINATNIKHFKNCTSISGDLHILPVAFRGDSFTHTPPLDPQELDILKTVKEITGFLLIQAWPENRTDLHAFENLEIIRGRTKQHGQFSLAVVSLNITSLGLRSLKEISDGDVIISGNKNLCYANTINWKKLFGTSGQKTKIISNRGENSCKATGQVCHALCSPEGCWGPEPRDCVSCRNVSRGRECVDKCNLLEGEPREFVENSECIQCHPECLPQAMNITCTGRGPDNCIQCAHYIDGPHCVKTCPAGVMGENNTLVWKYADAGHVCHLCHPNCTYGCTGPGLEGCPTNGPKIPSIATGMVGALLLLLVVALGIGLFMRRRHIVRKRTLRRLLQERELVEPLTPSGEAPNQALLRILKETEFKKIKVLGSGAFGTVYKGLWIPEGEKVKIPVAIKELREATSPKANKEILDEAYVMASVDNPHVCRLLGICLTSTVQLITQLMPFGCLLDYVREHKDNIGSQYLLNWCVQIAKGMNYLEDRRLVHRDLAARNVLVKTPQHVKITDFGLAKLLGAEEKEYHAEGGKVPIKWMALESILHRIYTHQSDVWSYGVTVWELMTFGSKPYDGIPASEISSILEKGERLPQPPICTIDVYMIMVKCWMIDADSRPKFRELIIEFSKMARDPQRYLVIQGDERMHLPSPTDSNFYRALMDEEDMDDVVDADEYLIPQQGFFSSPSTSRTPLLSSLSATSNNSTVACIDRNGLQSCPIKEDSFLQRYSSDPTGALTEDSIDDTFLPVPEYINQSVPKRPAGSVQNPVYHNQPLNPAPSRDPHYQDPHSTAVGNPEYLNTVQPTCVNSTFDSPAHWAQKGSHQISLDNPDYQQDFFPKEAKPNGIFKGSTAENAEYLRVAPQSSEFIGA
Description: Inhibition of recombinant human N-terminal GST-tagged EGFR (669 to 1210 residues) cytoplasmic domain expressed in baculovirus expression system using Srctide as substrate incubated for 1 hr by mobility shift assay

[7] = molecular target: Hepatocyte growth factor receptor (Homo sapiens, UniProt P08581); test: Inhibition of recombinant human N-terminal GST-tagged MET (956 to 1390 residues) cytoplasmic domain expressed in baculovirus expression system using Srctide as substrate incubated for 1 hr by mobility shift assay
[8] = molecular target: Proto-oncogene tyrosine-protein kinase ROS (Homo sapiens, UniProt P08922); test: Inhibition of recombinant human N-terminal GST-tagged ROS (1883 to 2347 residues) cytoplasmic domain expressed in baculovirus expression system using IRS1 as substrate incubated for 1 hr by mobility shift assay
[9] = molecular target: ALK tyrosine kinase receptor (Homo sapiens, UniProt Q9UM73, G1202R); test: Inhibition of recombinant human N-terminal GST-tagged ALK (1058 to 1620 residues) cytoplasmic domain G1202R mutant using srctide as substrate incubated for 1 hr by mobility shift assay
Sequence of ALK tyrosine kinase receptor (Homo sapiens, UniProt Q9UM73, G1202R) (Q9UM73 19-1620 G1202R limits assumed): as the sequence (Q9UM73 19-1620 L1196M limits assumed) above, with M1178L, G1184R counted along it

KARPAS-299 = test: Antiproliferative activity against human KARPAS299 cells assessed as reduction in cell viability incubated for 72 hrs by MTT assay; format: functional, cell-based; conditions: KARPAS-299, 72 h
NCI-H2228 [10] = test: Induction of apoptosis in human NCI-H2228 cells assessed as increase in nuclear shrinkage incubated for 48 hrs by AO/EB staining based fluorescence microscopy; format: functional, cell-based
NCI-H2228 [11] = test: Induction of apoptosis in human NCI-H2228 cells assessed as increase in cell membrane damage at 30 nM incubated for 48 hrs by Hoechst 33258 staining based fluorescence microscopy; format: functional
NCI-H2228 [12] = test: Induction of apoptosis in human NCI-H2228 cells assessed as increase in nuclei damage incubated for 48 hrs by Hoechst 33258 staining based fluorescence microscopy; format: functional, cell-based
NCI-H2228 [13] = test: Induction of apoptosis in human NCI-H2228 cells assessed as increase in nuclei damage at 30 nM incubated for 48 hrs by Hoechst 33258 staining based fluorescence microscopy; format: functional, cell-based
NCI-H2228 [14] = test: Induction of apoptosis in human NCI-H2228 cells assessed as increase in cell membrane damage incubated for 48 hrs by Hoechst 33258 staining based fluorescence microscopy; format: functional
NCI-H2228 [15] = test: Induction of apoptosis in human NCI-H2228 cells assessed as increase in nuclear fragmentation incubated for 48 hrs by AO/EB staining based fluorescence microscopy; format: functional, cell-based
A549 [16] = test: Potency index, ratio of IC50 of ceritinib to IC50 of compound for antiproliferative activity against human A549 cells harbouring […] mutant assessed as reduction in cell viability incubated for 72 hrs by MTT assay; format: functional
NCI-H2228 [17] = test: Induction of apoptosis in human NCI-H2228 cells assessed as increase in nuclear shrinkage at 30 nM incubated for 48 hrs by AO/EB staining based fluorescence microscopy; format: functional, cell-based
NCI-H2228 [18] = test: Induction of apoptosis in human NCI-H2228 cells assessed as increase in nuclear fragmentation at 30 nM incubated for 48 hrs by AO/EB staining based fluorescence microscopy; format: functional, cell-based

SMILES | IC50 (HCC78) | IC50 (A549 [1]) | IC50 (A549 [2]) | IC50 [3] | IC50 [4] | IC50 (HT-29) | IC50 (NCI-H2228 [5]) | IC50 [6] | IC50 [7] | IC50 [8] | IC50 [9] | IC50 (KARPAS-299) | also measured
COc1cc(NC(=O)C2CC2)ccc1Nc1ncc(Cl)c(Nc2ccccc2NC(C)=O)n1 | 230 nM | 930 nM | > 10000 nM | 4.1 nM | 6.6 nM | 2960 nM | 490 nM | 617 nM | > 1000 nM | 3.2 nM | 11.5 nM | 1060 nM | –
COc1cc(NC(=O)N2CCCC2)ccc1Nc1ncc(Cl)c(Nc2ccccc2NC(C)=O)n1 | 870 nM | 360 nM | > 10000 nM | 5.1 nM | 3.7 nM | 1270 nM | 79 nM | > 1000 nM | > 1000 nM | 0.97 nM | 7.1 nM | 160 nM | –
COc1cc(NC(=O)N2CCN(CCO)CC2)ccc1Nc1ncc(Cl)c(Nc2ccccc2NC(C)=O)n1 | 130 nM | 270 nM | > 10000 nM | 6.3 nM | 2.7 nM | 4030 nM | 260 nM | > 1000 nM | > 1000 nM | 1.7 nM | 6.3 nM | 93 nM | –
COc1cc(N2CCCC2=O)ccc1Nc1ncc(Cl)c(Nc2ccccc2NC(C)=O)n1 | 97 nM | 410 nM | 4130 nM | 6.2 nM | 2.9 nM | 1530 nM | 220 nM | > 1000 nM | 532 nM | 4.4 nM | 15.7 nM | 220 nM | –
COc1cc(NC(=O)N2CCOCC2)ccc1Nc1ncc(Cl)c(Nc2ccccc2NC(C)=O)n1 | 41 nM | 30 nM | 1610 nM | 2.1 nM | 0.91 nM | > 10000 nM | 56 nM | > 1000 nM | > 1000 nM | 0.73 nM | 4.3 nM | 27 nM | Activity (NCI-H2228 [10]): Dose-dependent effect; Activity (NCI-H2228 [11]): Active; Activity (NCI-H2228 [12]): Dose-dependent effect; Activity (NCI-H2228 [13]): Active; Activity (NCI-H2228 [14]): Dose-dependent effect; Activity (NCI-H2228 [15]): Dose-dependent effect; Ratio IC50 (A549 [16]): 16.5; Activity (NCI-H2228 [17]): Active; Activity (NCI-H2228 [18]): Active
COc1cc(NC(=O)N2CC(O)C2)ccc1Nc1ncc(Cl)c(Nc2ccccc2NC(C)=O)n1 | 490 nM | 1070 nM | > 10000 nM | – | – | 4150 nM | 730 nM | – | – | – | – | 270 nM | –
COc1cc(NC(=O)NC2CCN(C(=O)OC(C)(C)C)CC2)ccc1Nc1ncc(Cl)c(Nc2ccccc2NC(C)=O)n1 | 170 nM | 1830 nM | > 10000 nM | – | – | 5510 nM | 840 nM | – | – | – | – | 1020 nM | –
COc1cc(N2CCCNC2=O)ccc1Nc1ncc(Cl)c(Nc2ccccc2NC(C)=O)n1 | 89 nM | 170 nM | > 10000 nM | 4.7 nM | 5.1 nM | 6070 nM | 220 nM | > 1000 nM | > 1000 nM | 5.3 nM | 10.2 nM | 100 nM | –
COc1cc(NC(=O)N2CCN(C(=O)OC(C)(C)C)CC2)ccc1Nc1ncc(Cl)c(Nc2ccccc2NC(C)=O)n1 | 230 nM | 1170 nM | 2310 nM | – | – | 3110 nM | 930 nM | – | – | – | – | 1120 nM | –
